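All cell lines were grown in 96-well plates and treated with compound for 48 hours. Here, GI50 denotes the concentration required for 50% inhibition of growth.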 Active and inactive are the calls of the source. No stated cut-off is given here; in the data, active = GI50 up to about 1.1 µM and inactive = higher.
Tests used:
Assay in all cases: NCI tumour cell line growth inhibition, 48 h
NCI-H23 = tested on: NCI-H23
SK-MEL-28 = tested on: SK-MEL-28
SK-OV-3 = tested on: SK-OV-3
A549 = tested on: A549
M14 = tested on: M14
HOP-62 = tested on: HOP-62
SF-268 = tested on: SF-268
SR = tested on: SR
KM12 = tested on: KM12
RPMI-8226 = tested on: RPMI-8226
PC-3 = tested on: PC-3
U-251 = tested on: U-251
RXF 393 = tested on: RXF 393
SW-620 = tested on: SW-620
MDA-MB-231 = tested on: MDA-MB-231
IGROV-1 = tested on: IGROV-1
HT-29 = tested on: HT-29
OVCAR-3 = tested on: OVCAR-3
SN12C = tested on: SN12C
UACC-257 = tested on: UACC-257

Row | Compound | GI50 (NCI-H23) | GI50 (SK-MEL-28) | GI50 (SK-OV-3) | GI50 (A549) | GI50 (M14) | GI50 (HOP-62) | GI50 (SF-268) | GI50 (SR) | GI50 (KM12) | GI50 (RPMI-8226) | GI50 (PC-3) | GI50 (U-251) | GI50 (RXF 393) | GI50 (SW-620) | GI50 (MDA-MB-231) | GI50 (IGROV-1) | GI50 (HT-29) | GI50 (OVCAR-3) | GI50 (SN12C) | GI50 (UACC-257)
1 | Clc1ccc(/C=N/C23CC4CC(CC(C4)C2)C3)cc1Cl | > 10 µM (inactive) | > 10 µM (inactive) | > 10 µM (inactive) | > 10 µM (inactive) | > 10 µM (inactive) | > 10 µM (inactive) | > 10 µM (inactive) | > 10 µM (inactive) | > 10 µM (inactive) | > 10 µM (inactive) | > 10 µM (inactive) | > 10 µM (inactive) | > 10 µM (inactive) | > 10 µM (inactive) | > 10 µM (inactive) | > 10 µM (inactive) | > 10 µM (inactive) | > 10 µM (inactive) | > 10 µM (inactive) | > 10 µM (inactive)
2 | O=C(O)c1ccccc1C(=O)OCC1CCCN2CCCCC12 (configuration not stated) | > 100 µM (inactive) | > 100 µM (inactive) | > 100 µM (inactive) | > 100 µM (inactive) | > 100 µM (inactive) | > 100 µM (inactive) | > 100 µM (inactive) | > 100 µM (inactive) | > 100 µM (inactive) | > 100 µM (inactive) | > 100 µM (inactive) | > 100 µM (inactive) | > 100 µM (inactive) | > 100 µM (inactive) | > 100 µM (inactive) | > 100 µM (inactive) | > 100 µM (inactive) | > 100 µM (inactive) | > 100 µM (inactive) | > 100 µM (inactive)
3 | C/C=C/OC1C(C2COC(C)(C)O2)OC2OC(C)(C)OC21 (configuration not stated) | > 100 µM (inactive) | > 100 µM (inactive) | > 100 µM (inactive) | > 100 µM (inactive) | > 100 µM (inactive) | > 100 µM (inactive) | > 100 µM (inactive) | > 100 µM (inactive) |  | > 100 µM (inactive) | > 100 µM (inactive) | > 100 µM (inactive) | > 100 µM (inactive) | > 100 µM (inactive) | > 100 µM (inactive) | > 100 µM (inactive) | > 100 µM (inactive) | > 100 µM (inactive) |  | > 100 µM (inactive)
4 | COC(=O)c1c(C)nc(C)c(NO)c1-c1ccccc1C(F)(F)F | 35.6 µM (inactive) | 20.4 µM (inactive) | > 100 µM (inactive) | > 100 µM (inactive) | 19 µM (inactive) | > 100 µM (inactive) | 41.4 µM (inactive) | 30.2 µM (inactive) | 34.7 µM (inactive) | 15.1 µM (inactive) | 70.5 µM (inactive) | > 100 µM (inactive) | 16.7 µM (inactive) | 16 µM (inactive) | 13.8 µM (inactive) | 18.8 µM (inactive) | 18.4 µM (inactive) | 16.7 µM (inactive) | 27 µM (inactive) | 22 µM (inactive)
5 | N#CSC#Cc1ccc(C#CSC#N)cc1 | 18.7 µM (inactive) | 26.2 µM (inactive) | 22.6 µM (inactive) | 17.8 µM (inactive) |  | 23 µM (inactive) | 21.5 µM (inactive) | 51.5 µM (inactive) | 19.4 µM (inactive) | > 100 µM (inactive) | 15.6 µM (inactive) | 21.5 µM (inactive) | 18.7 µM (inactive) | 19.2 µM (inactive) | 17.8 µM (inactive) | 15.5 µM (inactive) | 20.1 µM (inactive) | 19.3 µM (inactive) | 18 µM (inactive) | 17.3 µM (inactive)
6 | C1COC(NC(C2CC2)C2CC2)=N1 [RILMENIDINE] | > 100 µM (inactive) | > 100 µM (inactive) | > 100 µM (inactive) | > 100 µM (inactive) | > 100 µM (inactive) |  |  | > 100 µM (inactive) | > 100 µM (inactive) | > 100 µM (inactive) | > 100 µM (inactive) | > 100 µM (inactive) | > 100 µM (inactive) | > 100 µM (inactive) | > 100 µM (inactive) | > 100 µM (inactive) | > 100 µM (inactive) | > 100 µM (inactive) |  | > 100 µM (inactive)
7 | Cc1ccc(S(=O)(=O)NNC(=O)Nc2cccc(C(F)(F)F)c2)cc1 | > 100 µM (inactive) | > 100 µM (inactive) | > 100 µM (inactive) | > 100 µM (inactive) | > 100 µM (inactive) | > 100 µM (inactive) | > 100 µM (inactive) | > 100 µM (inactive) | 57.3 µM (inactive) | > 100 µM (inactive) | 36.4 µM (inactive) | 96.8 µM (inactive) | 85.7 µM (inactive) | > 100 µM (inactive) | > 100 µM (inactive) | > 100 µM (inactive) | > 100 µM (inactive) |  | > 100 µM (inactive) | 57.9 µM (inactive)
8 | CCOC(=O)/C=C(/C(=O)OCC)n1cc(C)c(=O)n(Cc2cn(CCCCOC(C)=O)nn2)c1=O | 16.5 µM (inactive) | 13.4 µM (inactive) | > 100 µM (inactive) | 27 µM (inactive) |  | 33.6 µM (inactive) | 17.1 µM (inactive) | 4.27 µM (inactive) | 15.5 µM (inactive) | 5.13 µM (inactive) | 19.7 µM (inactive) | 18.5 µM (inactive) | 17.6 µM (inactive) | 3.03 µM (inactive) | 27.6 µM (inactive) | 15.2 µM (inactive) | 8.05 µM (inactive) | 14.7 µM (inactive) | 23.6 µM (inactive) | 19.8 µM (inactive)
9 | O=C1CSC(c2ccccc2O)N1c1ccc2c(c1)Oc1c(Cl)c3c(c(Cl)c1=N2)Oc1cc(N2C(=O)CSC2c2ccccc2O)ccc1N=3 (configuration not stated) | 58.3 µM (inactive) | 81.5 µM (inactive) | 25.8 µM (inactive) |  | 48.6 µM (inactive) | 28.6 µM (inactive) | 32.7 µM (inactive) | 0.873 µM (active) | 34.3 µM (inactive) | 23.7 µM (inactive) | 38.4 µM (inactive) | 24.9 µM (inactive) | 17.1 µM (inactive) | 27.4 µM (inactive) | 28.9 µM (inactive) | 36.1 µM (inactive) | 54.7 µM (inactive) | 33.3 µM (inactive) |  | 81.1 µM (inactive)
10 | NC(=O)C(Nc1c(Cl)cccc1Cl)c1cc2cc(Br)ccc2nc1Cl (configuration not stated) | 44.6 µM (inactive) | > 100 µM (inactive) | > 100 µM (inactive) | 63.1 µM (inactive) | 33 µM (inactive) | 65.8 µM (inactive) | 49.8 µM (inactive) | 12.2 µM (inactive) | 38 µM (inactive) | 31.5 µM (inactive) | 38.9 µM (inactive) |  | 41.7 µM (inactive) | 37.6 µM (inactive) | 44.1 µM (inactive) | 28.1 µM (inactive) | 52.8 µM (inactive) | 52.8 µM (inactive) | 63.1 µM (inactive) | 83.2 µM (inactive)
11 | CC(=O)c1ccc2c(c1)CC1(C2)Cc2cc3c(c(C(=O)O)c2C1)CCC3 (configuration not stated) | > 100 µM (inactive) | > 100 µM (inactive) | > 100 µM (inactive) | 37.9 µM (inactive) |  | > 100 µM (inactive) | > 100 µM (inactive) | 71.6 µM (inactive) | > 100 µM (inactive) | 63.7 µM (inactive) | > 100 µM (inactive) | 55.8 µM (inactive) | > 100 µM (inactive) | > 100 µM (inactive) | > 100 µM (inactive) | > 100 µM (inactive) | > 100 µM (inactive) | 92.5 µM (inactive) | > 100 µM (inactive) | > 100 µM (inactive)
12 | CCOC(=O)/C=C/C1OC(C)(C)OC1/C=C/C(=O)OCC (configuration not stated) | 40.6 µM (inactive) | 28.4 µM (inactive) | > 100 µM (inactive) | 40.9 µM (inactive) | 37.7 µM (inactive) | 23.7 µM (inactive) | 41.4 µM (inactive) | 15.1 µM (inactive) | 25.4 µM (inactive) | 24.8 µM (inactive) | 44.9 µM (inactive) | 41.3 µM (inactive) | 9.91 µM (inactive) | 19.7 µM (inactive) | 39.9 µM (inactive) | 31.3 µM (inactive) | 18.2 µM (inactive) |  | 22.6 µM (inactive) | 48.4 µM (inactive)
13 | O=C(c1ccc(Cl)cc1)N(C(=S)OCc1ccccn1)c1ccccc1 | 67.6 µM (inactive) | > 100 µM (inactive) | > 100 µM (inactive) |  | 65.3 µM (inactive) | 16.6 µM (inactive) | > 100 µM (inactive) | > 100 µM (inactive) | > 100 µM (inactive) | 40.6 µM (inactive) | 45.1 µM (inactive) | 53.6 µM (inactive) | 23.5 µM (inactive) | 66.7 µM (inactive) | > 100 µM (inactive) | 36.1 µM (inactive) | 55 µM (inactive) | 52.7 µM (inactive) | 51.6 µM (inactive) | 82.6 µM (inactive)
14 | FC1=C2CCCCCC2SC1(F)F (configuration not stated) | > 100 µM (inactive) | > 100 µM (inactive) | > 100 µM (inactive) | > 100 µM (inactive) | 30.7 µM (inactive) |  | > 100 µM (inactive) | 20.1 µM (inactive) | > 100 µM (inactive) | 28.6 µM (inactive) | > 100 µM (inactive) |  | 13.3 µM (inactive) | 14.8 µM (inactive) | 78.9 µM (inactive) | > 100 µM (inactive) | 43.6 µM (inactive) | > 100 µM (inactive) |  | 99.3 µM (inactive)
15 | CC(=O)OC12c3ccccc3-c3ccccc3C1C1C(=O)OC(=O)C12 (configuration not stated) | > 10 µM (inactive) | > 10 µM (inactive) | > 10 µM (inactive) |  | > 10 µM (inactive) | > 10 µM (inactive) | > 10 µM (inactive) | > 10 µM (inactive) | > 10 µM (inactive) | > 10 µM (inactive) | > 10 µM (inactive) | > 10 µM (inactive) | > 10 µM (inactive) | > 10 µM (inactive) | > 10 µM (inactive) | > 10 µM (inactive) | > 10 µM (inactive) | > 10 µM (inactive) | > 10 µM (inactive) | > 10 µM (inactive)
